Experimental data: article PMC10788915, “Fragment Merging, Growing, and Linking Identify New Trypanothione Reductase Inhibitors for Leishmaniasis” (Journal of Medicinal Chemistry, 2024)
Read-outs that look alike come from different tables or passages of the source.

Assays:
[1] = system: L. infantum axenic amastigotes; experiment: In vitro inhibition of axenic amastigote growth (MTT); type: cell-based, Leishmania infantum; settings: 72 h, read-out: axenic amastigote EC50 ± SE (95% CI)
Experimental: Axenic amastigote growth inhibition was evaluated using L. infantum strain (MHOM/TN/80/IPT1, WHO international reference strain). Axenic amastigote cultures were obtained as described previously with modifications.[45] Promastigotes were grown in Schneider’s Drosophila medium (SIGMA) containing 10% heat-inactivated fetal calf serum (FCS)(GIBCO-BRL) and 2% gentamicin (50 mg/L)(Sigma) in 25 cm^2 flasks at 22 °C. After 4–5 days, the parasites were adjusted to 1 × 10^6 parasites/mL in axenic medium MAA/20 consisting of modified medium 199 (Gibco BRL) with Hanks’ salts supplemented with 0.5% tryptic soy broth (Sigma), 0.01 mM bathocuproine disulfonic acid, 3 mM L-cysteine, 15 mM D-glucose, 5 mM L-glutamine, 4 mM NaHCO3, 0.023 mM bovine hemin, and 25 mM HEPES to a final pH of 6.5 and supplemented with 20% pretested FCS, and axenic amastigotes were obtained by shifting the incubation conditions: 198 μL of suspension was seeded in triplicate in 96-well flat bottom microplates and incubated at 37 °C, 5% CO2 for 48 h in order to allow the axenization. The amastigote cells were visualized under the light microscope to confirm transformation. Then, 2 μL of the selected compounds with varying concentrations were added: 100, 50, 25, 12.5, 6.25, 3.12, 1.56, 0.8, 0.4, 0.2, 0.1, 0.05 μM. […] Each experiment was conducted in triplicate for each drug concentration, and three independent experiments were performed. To estimate the 50% inhibitory concentration (IC50), the (3-[4.5-dimethylthiazol-2-yl]-2.5-diphenyltetrazolium bromide) (MTT) micromethod was used throughout the experiments with modification. After 72 h of incubation, 30 μL of MTT was added to each well, and the plates were further incubated for 3 h. The absorbance at 550 nm was measured with a 96-well scanner. Antileishmanial activity was expressed as the percentage of inhibition in the number of live parasites compared to that in the control (nontreated parasites). % inhibition was calculated as follows: % growth inhibition = [(absorb cell with drug × 100)/absorb cell control] – 100. Results were analyzed by GraphPad Prism 5.0, dose–response curves were obtained and IC50 deduced (GraphPad Software Inc., San Diego, USA).

[2] = biological target: T1, Leishmania infantum TR (LiTR) (Leishmania infantum, UniProt A4HSF7); experiment: LiTR enzymatic inhibition assay (NADPH oxidation at 340 nm); type: biochemical; settings: for LiTR residual activity % / remaining activity at 100 µM / remaining activity at 10 µM: mean ± SD, n = 3; for remaining activity at 100 µM / remaining activity at 10 µM: read-out: LiTR residual activity %; for IC50: 50 nM LiTR, 150 μM trypanothione, 100 μM NADPH, 25 °C
T1 construct: The TbTR and LiTR genes were subcloned in a pET28b vector; 6-His (cleaved yes); made in house; host or cells: E. coli BL21(DE3), pET28b
T1 sequence (A4HSF7 1-491): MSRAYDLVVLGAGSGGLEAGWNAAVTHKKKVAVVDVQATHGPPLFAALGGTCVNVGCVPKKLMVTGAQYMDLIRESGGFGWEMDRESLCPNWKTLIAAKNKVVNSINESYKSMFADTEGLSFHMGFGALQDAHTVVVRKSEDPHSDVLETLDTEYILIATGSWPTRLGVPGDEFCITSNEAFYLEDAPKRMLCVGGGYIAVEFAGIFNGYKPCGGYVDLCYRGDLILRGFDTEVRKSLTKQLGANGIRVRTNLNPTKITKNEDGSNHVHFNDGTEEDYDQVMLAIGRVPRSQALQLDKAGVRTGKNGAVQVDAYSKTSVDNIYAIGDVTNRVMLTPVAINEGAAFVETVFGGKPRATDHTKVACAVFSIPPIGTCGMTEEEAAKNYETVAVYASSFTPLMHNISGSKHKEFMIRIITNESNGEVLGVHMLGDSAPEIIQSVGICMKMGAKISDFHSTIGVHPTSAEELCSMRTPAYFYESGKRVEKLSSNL
Experimental: (§1) Enzymatic inhibition assays were performed in 50 mM HEPES pH 7.4, 40 mM NaCl at 25 °C using a JASCO V650 spectrophotometer equipped with a JASCO EHC 716 Peltier element to ensure controlled temperature. The first experiment was carried out using 50 nM LiTR, 10 or 100 μM compound to be tested, 150 μM trypanothione (trypanothione disulfide purchased from Bachem), and 100 μM NADPH (tetrasodium salt, purchased from Calbiochem). The best inhibitor candidates were then tested at concentrations ranging from 1 nM to 250 μM to determine the IC50. Assays were initiated upon addition of 100 μM NADPH to 50 nM LiTR or hGR (human glutathione reductase purchased from Sigma-Aldrich) in the presence of different concentration of compounds and 150 μM trypanothione. For both experiments, the oxidation of NADPH was followed as a decrease in absorbance at 340 nm. For each concentration of compound, the initial velocity of the NADPH oxidation was used to determine the percentage of LiTR activity with respect to that in the absence of any compound. The IC50 was determined upon fitting the residual activity of TR as a dose–response logistic equation defined as ymin + (ymax – ymin)/(1 + (x/IC50)^slope). […] The Ki was determined graphically upon linear fitting of data points for each trypanothione concentration. Data analysis was performed with QtiPlot 0.9.8.9 svn 2288, and graphs were made with Matplotlib.
(§2) Figure S3. Inhibition assay of LiTR (red) and hGR (grey) with compounds 5-6, 9-10 and 14.
(§3) Enzymatic assays were carried out at 25°C on a JASCO V650 spectrophotometer equipped with a JASCO EHC716 Peltier unit. Compound concentrations used during the experiments range from 1 […]
(§4) higher than 30 µM and 20 µM, respectively. Briefly, 50 nM LiTR or hGR (Sigma Aldrich) were mixed in 50 mM HEPES pH 7.4, 40 mM NaCl with each compound and 150 µM trypanothione or glutathione. After 3-minute incubation at 25°C, the measurement was initiated upon addition of 100 µM NADPH. The oxidation of NADPH was followed as a decrease in absorbance at 340 nm. Each initial velocity of LiTR enzymatic reaction with the compounds was expressed as a percentage of residual activity with respect to that in the absence of compound. Each data point is the mean of two measurements. The IC50 was determined upon fitting the data as a dose response logistic equation defined by the Kaleidagraph software as ymin+(ymax-ymin)/(1+(x/IC50)^slope).
(§5) (1 picture or pasted object on this page, not shown here)

[3] = system: primary murine macrophages; experiment: Cytotoxicity assay on primary murine macrophages (MTT); type: cell-based, Balb/c mice; settings: Balb/c peritoneal macrophages, 72 h, read-out: primary murine macrophage CC50 ± SE (95% CI)
Experimental: (§6) To assess the cytotoxicity of compounds on mammalian macrophages, we tested all the compounds against both human leukemia monocyte cell line (THP-1 cells, ATCC) differentiated into macrophages by treatment with 40 ng/mL of phorbol myristate acetate (PMA; Sigma) for 48 h and peritoneal exudate macrophages harvested from Balb/c mice. […] Cell viability was evaluated using the MTT assay, and the concentration of the compound that produced a 50% reduction of cell viability in treated culture cells with respect to untreated ones (CC50) was determined by GraphPad Prism 5.0 (GraphPad Software Inc., San Diego, USA). […] The selectivity index for each compound was calculated as the ratio of cytotoxicity (CC50) in macrophages cells to activity (IC50) against Leishmania axenic amastigotes. The experiments were performed in triplicate, and two independent experiments were conducted.

[4] = system: human THP-1-derived macrophages; experiment: Cytotoxicity assay on human THP-1-derived macrophages (MTT); type: cell-based; settings: for CC50: 72 h, MTT, read-out: human THP-1-derived macrophage CC50 ± SE (95% CI)
Experimental: as §6

[5] = Cytotoxicity assay on primary murine macrophages (MTT); type: cell-based, Balb/c mice; settings: Balb/c, mouse, primary peritoneal exudate macrophages, read-out: primary murine macrophage CC50 ± SE (95% CI)
Experimental: as §6

[6] = Cytotoxicity assay on human THP-1-derived macrophages (MTT); type: cell-based; settings: human, THP-1 cells differentiated into macrophages with PMA, 72 h, MTT; read-out: human THP-1-derived macrophage CC50 ± SE (95% CI)
Experimental: as §6

[7] = biological target: T2, hGR (human glutathione reductase) (Homo sapiens, UniProt P00390); experiment: hGR enzymatic inhibition assay (NADPH oxidation at 340 nm); type: biochemical; settings: for IC50: 50 nM hGR, 100 μM NADPH, 25 °C
T2 construct: purchased Sigma-Aldrich
T2 sequence (P00390 44-522): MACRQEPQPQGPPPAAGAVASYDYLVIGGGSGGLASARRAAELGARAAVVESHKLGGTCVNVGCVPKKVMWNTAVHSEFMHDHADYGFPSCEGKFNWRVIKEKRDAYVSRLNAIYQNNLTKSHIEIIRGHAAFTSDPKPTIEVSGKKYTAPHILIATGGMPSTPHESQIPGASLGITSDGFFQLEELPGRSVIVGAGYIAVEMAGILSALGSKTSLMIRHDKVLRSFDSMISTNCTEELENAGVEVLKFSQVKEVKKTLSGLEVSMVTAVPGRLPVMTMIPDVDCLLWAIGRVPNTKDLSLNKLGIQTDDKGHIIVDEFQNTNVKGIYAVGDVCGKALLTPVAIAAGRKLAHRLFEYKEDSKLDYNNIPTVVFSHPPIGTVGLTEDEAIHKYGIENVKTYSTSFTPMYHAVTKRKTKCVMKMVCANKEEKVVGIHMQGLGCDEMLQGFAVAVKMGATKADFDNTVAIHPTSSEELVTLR
Experimental: as §1, §2, §3, §4, §5

[8] = Solubility observed in the enzymatic assay; type: physicochemical; settings: no reliable data at concentrations higher than 30 µM (5) and 20 µM (6)
Experimental: as §2, §3, §4, §5

4-(3,4-Dichlorobenzyl)-N-(4-fluorophenyl)-N-((5-(phenethylcarbamoyl)furan-2-yl)methyl)piperazine-1-carboxamide [Compound 8]
EC50 [1]: 10.3 ± 0.9 µM
LiTR residual activity % ([2]; compound at 10 μM): 94.1 ± 4.9 @10 μM %
CC50 [3]: 14.4 ± 1.6 µM
SI = human THP-1-derived macrophage CC50/axenic amastigote EC50 [4]: 1.1
CC50 [4]: 11.7 ± 1.6 µM

O=C(Nc1ccc(F)cc1)N1CCN(CCCc2ccccc2)CC1 [Compound 4, N-(4-Fluorophenyl)-4-(3-phenylpropyl)piperazine-1-carboxamide]
EC50 ([1]; Leishmania infantum): 11.5 ± 2.1 µM
remaining activity at 100 µM ([2]; compound at 100 μM): 96.7 ± 6.1%
CC50 at 72 h [5]: 12.9 ± 0.9 µM
SI = human THP-1-derived macrophage CC50/axenic amastigote EC50 [4]: 0.8
CC50 at 72 h [6]: 9.6 ± 0.71 µM

O=C(NCCc1ccc(F)cc1)c1ccc(CN(C(=O)N2CCN(CCCc3ccccc3)CC2)c2ccc(F)cc2)o1 [Compound 5, N-((5-((4-Fluorophenethyl)carbamoyl)furan-2-yl)methyl)-N-(4-fluorophenyl)-4-(3-phenylpropyl)piperazine-1-carboxamide]
IC50 [7]: 163 ± 58.8 µM
SI (ratio of GR IC50/TR IC50) ([7]; hGR versus LiTR): 3
EC50 [1]: 12 ± 1.7 µM
EC50 ([1]; Leishmania infantum): 11.5 ± 2.1 µM
IC50 [2]: 54.6 ± 20.9 µM
decrease in TR activity ([2]; compound at 100 μM): 35.1%
LiTR residual activity % ([2]; compound at 100 μM, 100 µM): 65.4 ± 3.0 @100 μM %
remaining activity at 100 µM ([2]; compound at 100 μM): 64.9%
CC50 [3]: 9.1 ± 0.9 µM
CC50 at 72 h [5]: 12.9 ± 0.9 µM
solubility in the enzymatic assay [8]: low solubility
SI = human THP-1-derived macrophage CC50/axenic amastigote EC50 [4]: 0.8
CC50 [4]: 6.5 ± 0.6 µM
CC50 at 72 h [6]: 9.6 ± 0.71 µM

O=C(NCCc1ccc(F)cc1)c1ccc(CN(C(=O)N2CCN(CCCN3c4ccccc4Sc4ccc(Cl)cc43)CC2)c2ccc(F)cc2)o1 [Compound 6, 4-(3-(2-Chloro-10H-phenothiazin-10-yl)propyl)-N-((5-((4-fluorophenethyl)carbamoyl)furan-2-yl)methyl)-N-(4-fluorophenyl)piperazine-1-carboxamide]
IC50 [7]: 9.6 ± 1.4 µM
EC50 [1]: 13 ± 1.5 µM
EC50 ([1]; Leishmania infantum): 12 ± 1.7 µM
IC50 [2]: 21.7 ± 4.4 µM
gain in LiTR IC50 with respect to 5 ([2]; compared to compound 5 (IC50 54.6 μM)): more than 2 fold
remaining activity at 10 µM ([2]; compound at 10 μM): 46.9 ± 18%
solubility in the enzymatic assay [8]: low solubility

O=C(O)c1ccc(N(Cc2ccc(C(=O)NCCc3ccc(F)cc3)o2)C(=O)N2CCN(CCCc3ccccc3)CC2)cc1 [Compound 11, 4-(N-((5-((4-Fluorophenethyl)carbamoyl)furan-2-yl)methyl)-4-(3-phenylpropyl)piperazine-1-carboxamido)benzoic Acid]
EC50 ([1]; Leishmania infantum): 25.6 ± 7.4 µM
remaining activity at 10 µM ([2]; compound at 10 μM): 74.5 ± 9.3%
CC50 at 72 h [5]: > 50 µM
SI = human THP-1-derived macrophage CC50/axenic amastigote EC50 [4]: >2
CC50 at 72 h [6]: > 50 µM

O=C(NCCc1ccc(F)cc1)c1ccc(CNC(=O)N2CCN(CCCc3ccccc3)CC2)o1 [Compound 12, N-((5-((4-Fluorophenethyl)carbamoyl)furan-2-yl)methyl)-4-(3-phenylpropyl)piperazine-1-carboxamide]
EC50 ([1]; Leishmania infantum): 14.1 ± 1.3 µM
remaining activity at 10 µM ([2]; compound at 10 μM): 74.6 ± 9.3%
CC50 at 72 h [5]: 26.7 ± 4.5 µM
SI = human THP-1-derived macrophage CC50/axenic amastigote EC50 [4]: 2.7
CC50 at 72 h [6]: 37.6 ± 13.8 µM

O=C(NCCc1ccc(F)cc1)c1ccc(CNC(=O)N2CCN(Cc3ccc(Cl)c(Cl)c3)CC2)o1 [Compound 13, 4-(3,4-Dichlorobenzyl)-N-((5-((4-fluorophenethyl)carbamoyl)furan-2-yl)methyl)piperazine-1-carboxamide]
EC50 ([1]; Leishmania infantum): 11.2 ± 0.7 µM
remaining activity at 10 µM ([2]; compound at 10 μM): 89.2 ± 4.9%
CC50 at 72 h [5]: 12.6 ± 0.9 µM
SI = human THP-1-derived macrophage CC50/axenic amastigote EC50 [4]: 1.9
CC50 at 72 h [6]: 21 ± 3.1 µM

N-((5-((4-Fluorophenethyl)carbamoyl)furan-2-yl)methyl)-N-(4-fluorophenyl)-4-(3-(2-(trifluoromethyl)-10H-phenothiazin-10-yl)propyl)piperazine-1-carboxamide [Compound 7]
EC50 [1]: 13 ± 1.5 µM
LiTR residual activity % ([2]; compound at 10 μM): 70.8 ± 5.9 @10 μM %
SI = human THP-1-derived macrophage CC50/axenic amastigote EC50 [4]: 1.8
CC50 [4]: 23.4 ± 4.6 µM
